Laboratory results reported in US10160747B2, “Compounds and methods for kinase modulation, and indications therefor” (Plexxikon Inc., priority 2016, dated 2018).

Legend:
[1] = tested on: MOLM-14 D835Y (endogenous FLT3 ITD and transfected FLT3 D835Y); test: MOLM-14 D835Y cell proliferation assay (CellTiter-Glo); type: cell-based; conditions: Homo sapiens, MOLM-14, 72 h; 3 d growth, GMean
In short: (§1)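 MOLM-14 cells (FLT3 ITD) carrying D835Y or F691L, 1×10^4 cells/well, eight 1:3 dilutions from 1 μM final, 0.2% DMSO, 3 days at 37 °C, 5% CO2. Viability by CellTiter-Glo luminescence (ATP content); IC50 from concentration-response.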

[2] = target: T1, BA/F3-FLT3-ITD + D835Y (Homo sapiens, UniProt P36888, D835Y, cells depend on it, form not given); test: Engineered BA/F3 cell growth assay, FLT3 ITD/D835Y; type: cell-based, murine; conditions: 3 d growth
T1 sequence (P36888 with tags, fused parts or gaps INS600HVDFREYEYD/D835Y): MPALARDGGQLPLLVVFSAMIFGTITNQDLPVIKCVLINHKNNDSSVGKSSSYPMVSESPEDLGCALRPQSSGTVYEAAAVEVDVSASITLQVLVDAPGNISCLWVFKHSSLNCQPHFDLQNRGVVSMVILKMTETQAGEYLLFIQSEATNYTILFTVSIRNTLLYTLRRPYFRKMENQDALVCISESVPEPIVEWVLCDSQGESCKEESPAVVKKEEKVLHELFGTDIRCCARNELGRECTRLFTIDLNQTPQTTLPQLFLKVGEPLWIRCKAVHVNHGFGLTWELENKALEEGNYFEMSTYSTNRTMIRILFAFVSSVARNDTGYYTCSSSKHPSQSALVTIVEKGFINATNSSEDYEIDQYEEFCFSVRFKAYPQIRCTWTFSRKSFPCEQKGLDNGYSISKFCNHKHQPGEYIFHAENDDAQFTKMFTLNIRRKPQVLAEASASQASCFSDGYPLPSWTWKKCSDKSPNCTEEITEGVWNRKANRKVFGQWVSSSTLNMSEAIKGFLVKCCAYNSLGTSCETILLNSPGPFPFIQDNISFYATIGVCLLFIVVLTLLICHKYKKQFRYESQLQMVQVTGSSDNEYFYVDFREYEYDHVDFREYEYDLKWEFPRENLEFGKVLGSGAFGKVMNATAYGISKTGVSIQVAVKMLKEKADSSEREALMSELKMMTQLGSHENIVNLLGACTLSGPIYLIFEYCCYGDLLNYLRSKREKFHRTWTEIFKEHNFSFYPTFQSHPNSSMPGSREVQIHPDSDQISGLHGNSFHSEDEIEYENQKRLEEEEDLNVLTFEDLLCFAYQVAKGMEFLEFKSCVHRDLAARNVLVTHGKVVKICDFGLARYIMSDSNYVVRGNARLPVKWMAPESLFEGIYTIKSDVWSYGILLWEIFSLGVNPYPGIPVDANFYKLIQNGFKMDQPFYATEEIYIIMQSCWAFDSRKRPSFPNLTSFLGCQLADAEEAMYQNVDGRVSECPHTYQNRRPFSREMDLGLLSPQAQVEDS
In short: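 IC50 derived from CellTiter-Glo ATP luminescence after 3 days at 37 °C, 5% CO2, over eight 1:3 dilutions from 1 μM (0.2% DMSO final). Cells: IL-3-independent murine Ba/F3 expressing full-length FLT3 ITD/D835Y, 1×10^4 per well.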

[3] = tested on: MOLM-14 F691L (endogenous FLT3 ITD and transfected FLT3 F691L); test: MOLM-14 F691L cell proliferation assay (CellTiter-Glo); type: cell-based; conditions: Homo sapiens, MOLM-14, 72 h; 3 d growth, GMean
In short: as §1

O=C(Cc1ccc(-c2cnc(Nc3cnn4ccccc34)nc2)cc1F)Nc1ccnc(C(F)(F)F)c1 [Compound P-0033, 2-[2-fluoro-4-[2-(pyrazolo[1,5-a]pyridin-3-ylamino)pyrimidin-5-yl]phenyl]-N-[2-(trifluoromethyl)-4-pyridyl]acetamide]
0.0001 to 10 µM: IC50 [1] | GI50 [2] | IC50 [3]

Cn1cnc(Nc2ncc(-c3ccc(CC(=O)Nc4cncc(C(F)(F)F)c4)c(F)c3)cn2)c1 [Compound P-0052, 2-[2-fluoro-4-[2-[(1-methylimidazol-4-yl)amino]pyrimidin-5-yl]phenyl]-N-[5-(trifluoromethyl)-3-pyridyl]acetamide]
0.0001 to 10 µM: IC50 [1] | GI50 [2] | IC50 [3]

Cc1ncc(NC(=O)Cc2ccc(-c3cnc(Nc4cnn5ccccc45)nc3)cc2F)cc1C(F)(F)F [Compound P-0065, 2-(2-fluoro-4-(2-(pyrazolo[1,5-a]pyridin-3-ylamino)pyrimidin-5-yl)phenyl)-N-(6-methyl-5-(trifluoromethyl)pyridin-3-yl)acetamide]
0.0001 to 10 µM: IC50 [1] | GI50 [2] | IC50 [3]

COc1ncc(NC(=O)Cc2ccc(-c3cnc(Nc4cnn(C)c4)nc3)cc2F)cc1C(F)(F)F [Compound P-0089, 2-[2-fluoro-4-[2-[(1-methylpyrazol-4-yl)amino]pyrimidin-5-yl]phenyl]-N-[6-methoxy-5-(trifluoromethyl)-3-pyridyl]acetamide]
0.0001 to 10 µM: IC50 [1] | GI50 [2] | IC50 [3]

Cc1ncc(NC(=O)Cc2ccc(-c3cnc4[nH]cc(F)c4c3)cc2F)cc1C(F)(F)F [Compound P-0062, 2-[2-fluoro-4-(3-fluoro-1H-pyrrolo[2,3-b]pyridin-5-yl)phenyl]-N-[6-methyl-5-(trifluoromethyl)-3-pyridyl]acetamide]
0.0001 to 10 µM: IC50 [1] | GI50 [2] | IC50 [3]

Cc1ncc(NC(=O)Cc2ccc(-c3cnc(Nc4cn[nH]c4)nc3)cc2F)cc1C(F)(F)F [Compound P-0027, 2-[2-fluoro-4-[2-(1H-pyrazol-4-ylamino)pyrimidin-5-yl]phenyl]-N-[6-methyl-5-(trifluoromethyl)-3-pyridyl]acetamide]
0.0001 to 10 µM: IC50 [1] | GI50 [2] | IC50 [3]

Cn1cc(Nc2ncc(-c3ccc(CC(=O)Nc4ccnc(C(F)(F)F)c4)c(F)c3)cn2)cn1 [Compound P-0083, 2-[2-fluoro-4-[2-[(1-methylpyrazol-4-yl)amino]pyrimidin-5-yl]phenyl]-N-[2-(trifluoromethyl)-4-pyridyl]acetamide]
0.0001 to 10 µM: IC50 [1] | GI50 [2] | IC50 [3]

CC(C)(C)c1ccc(NC(=O)Cc2ccc(-c3cnc4[nH]cc(F)c4c3)cc2F)cn1 [Compound P-0043, N-(6-tert-butyl-3-pyridyl)-2-[2-fluoro-4-(3-fluoro-1H-pyrrolo[2,3-b]pyridin-5-yl)phenyl]acetamide]
0.0001 to 10 µM: IC50 [1] | GI50 [2] | IC50 [3]

O=C(Cc1ccc(-c2cnc3[nH]cc(Cl)c3n2)cc1F)Nc1cnc(Cl)c(C(F)(F)F)c1 [Compound P-0060, 2-[4-(7-chloro-5H-pyrrolo[2,3-b]pyrazin-2-yl)-2-fluoro-phenyl]-N-[6-chloro-5-(trifluoromethyl)-3-pyridyl]acetamide]
0.0001 to 10 µM: IC50 [1] | GI50 [2] | IC50 [3]

CC(=O)c1c[nH]c2ncc(-c3ccc(CC(=O)Nc4cnc(C)c(C(F)(F)F)c4)c(F)c3)cc12 [Compound P-0063, 2-[4-(3-acetyl-1H-pyrrolo[2,3-b]pyridin-5-yl)-2-fluoro-phenyl]-N-[6-methyl-5-(trifluoromethyl)-3-pyridyl]acetamide]
0.0001 to 10 µM: IC50 [1] | GI50 [2] | IC50 [3]

COc1ncc(NC(=O)Cc2ccc(-c3cnc4[nH]cc(C(C)=O)c4c3)cc2F)cc1C(F)(F)F [Compound P-0035, 2-[4-(3-acetyl-1H-pyrrolo[2,3-b]pyridin-5-yl)-2-fluoro-phenyl]-N-[6-methoxy-5-(trifluoromethyl)-3-pyridyl]acetamide]
0.0001 to 10 µM: IC50 [1] | GI50 [2] | IC50 [3]

O=C(Cc1ccc(-c2cnc(Nc3cnn(C(F)F)c3)nc2)c(F)c1)Nc1cc(C(F)(F)F)ccn1 [Compound P-0024, 2-[4-[2-[[1-(difluoromethyl)pyrazol-4-yl]amino]pyrimidin-5-yl]-3-fluoro-phenyl]-N-[4-(trifluoromethyl)-2-pyridyl]acetamide]
0.0001 to 10 µM: IC50 [1] | GI50 [2] | IC50 [3]

COc1ncc(NC(=O)Cc2ccc(-c3cnc(Nc4cn[nH]c4)nc3)cc2F)cc1C(F)(F)F [Compound P-0026, 2-[2-fluoro-4-[2-(1H-pyrazol-4-ylamino)pyrimidin-5-yl]phenyl]-N-[6-methoxy-5-(trifluoromethyl)-3-pyridyl]acetamide]
0.0001 to 10 µM: IC50 [1] | GI50 [2] | IC50 [3]

Cn1cc(Nc2ncc(-c3ccc(CC(=O)Nc4cc(C(F)(F)F)ccn4)c(F)c3)cn2)cn1 [Compound P-0082, 2-[2-fluoro-4-[2-[(1-methylpyrazol-4-yl)amino]pyrimidin-5-yl]phenyl]-N-[4-(trifluoromethyl)-2-pyridyl]acetamide]
0.0001 to 10 µM: IC50 [1] | GI50 [2] | IC50 [3]

Cc1ncc(NC(=O)Cc2ccc(-c3cnc4[nH]cc(Cl)c4n3)cc2)cc1C(F)(F)F [Compound P-0079, 2-(4-(7-chloro-5H-pyrrolo[2,3-b]pyrazin-2-yl)phenyl)-N-(6-methyl-5-(trifluoromethyl)pyridin-3-yl)acetamide]
0.0001 to 10 µM: IC50 [1] | GI50 [2] | IC50 [3]

COc1nn(C[C@H](C)O)cc1Nc1ncc(-c2ccc(CC(=O)Nc3cncc(C(F)(F)F)c3)c(F)c2)cn1 [Compound P-0050, 2-[2-fluoro-4-[2-[[1-[(2S)-2-hydroxypropyl]-3-methoxy-pyrazol-4-yl]amino]pyrimidin-5-yl]phenyl]-N-[5-(trifluoromethyl)-3-pyridyl]acetamide]
0.0001 to 10 µM: IC50 [1] | GI50 [2] | IC50 [3]

Cc1nn(C)cc1Nc1ncc(-c2ccc(CC(=O)Nc3cnc(C)c(C(F)(F)F)c3)c(F)c2)cn1 [Compound P-0077, 2-[4-[2-[(1,3-dimethylpyrazol-4-yl)amino]pyrimidin-5-yl]-2-fluoro-phenyl]-N-[6-methyl-5-(trifluoromethyl)-3-pyridyl]acetamide]
0.0001 to 10 µM: IC50 [1] | GI50 [2] | IC50 [3]

Cc1ncc(NC(=O)Cc2ccc(-c3cnc4[nH]nc(C5CC5)c4c3)cc2F)cc1C(F)(F)F [Compound P-0066, 2-(4-(3-cyclopropyl-1H-pyrazolo[3,4-b]pyridin-5-yl)-2-fluorophenyl)-N-(6-methyl-5-(trifluoromethyl)pyridin-3-yl)acetamide]
0.0001 to 10 µM: IC50 [1] | GI50 [2] | IC50 [3]

COc1ncc(NC(=O)Cc2ccc(-c3cnc(Nc4cn[nH]c4)nc3)cc2)cc1C(F)(F)F [Compound P-0025, N-[6-methoxy-5-(trifluoromethyl)-3-pyridyl]-2-[4-[2-(1H-pyrazol-4-ylamino)pyrimidin-5-yl]phenyl]acetamide]
0.0001 to 10 µM: IC50 [1] | GI50 [2] | IC50 [3]
